The first test addresses T1, human α7 nAChR (Homo sapiens, UniProt P36544).
T1 construct: expressed in transfected cells
The test is described as follows: Evaluation of PAM activity with human α7 nACh receptor stably expressing cells (aequorin luminescence, FDSS7000). In kind it is cell-based. The conditions noted are these: 1 μM test compound (values marked *, footnote of Table 25); ACh at EC20; ratio of RLU (Max-Min) to control wells; read-out: α7PAM (%) @1 μM. The method, boiled down:
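Human α7 nAChR stable cells loaded with 4 μM Viviren (final) for 4 h at room temperature in the dark. Compounds in Hanks/20 mM HEPES/0.2% BSA were added and luminescence recorded on FDSS7000. PAM activity = RLU (Max-Min) ratio of test wells to control wells.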
T1 sequence (P36544 23-502): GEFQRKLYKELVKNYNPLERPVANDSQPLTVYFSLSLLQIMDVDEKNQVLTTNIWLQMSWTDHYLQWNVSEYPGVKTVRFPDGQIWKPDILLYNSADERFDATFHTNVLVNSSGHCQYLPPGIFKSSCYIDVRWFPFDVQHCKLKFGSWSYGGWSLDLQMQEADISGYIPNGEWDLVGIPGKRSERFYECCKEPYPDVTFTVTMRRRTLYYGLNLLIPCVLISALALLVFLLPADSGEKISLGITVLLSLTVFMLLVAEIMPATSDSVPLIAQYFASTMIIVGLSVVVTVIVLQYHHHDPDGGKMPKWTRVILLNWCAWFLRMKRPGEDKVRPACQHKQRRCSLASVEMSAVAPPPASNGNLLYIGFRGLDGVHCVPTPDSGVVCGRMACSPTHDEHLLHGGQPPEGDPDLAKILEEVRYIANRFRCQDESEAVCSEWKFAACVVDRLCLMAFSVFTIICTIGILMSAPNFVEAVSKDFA
Regarding `CC(C)(F)C(=O)N[C@H]1CC[C@@H](n2cnc(-c3cc(F)cc(F)c3)c2C#N)CC1` [Example 343], the activity at 1 µM stood at 380%.
Still for that read-out and setting: next, `CC(C)(F)C(=O)N[C@H]1CC[C@@H](n2cnc(-c3ccc(F)c(OC(F)(F)F)c3)c2C#N)CC1` [Example 350]: 670%.
On the same count and under the same terms, for `O=C(NC1CCOCC1)[C@H]1CC[C@@H](n2cnc(-c3cccc(F)c3)c2)CC1` [Example 355] the value was 118%.
For `O=C(NC1CCOCC1)[C@H]1CC[C@@H](n2cnc(-c3ccccc3F)c2)CC1` [Example 356], the activity at 1 µM is 119%.
Same read-out and setting: next, `O=C(NC1CCOCC1)[C@H]1CC[C@@H](n2cnc(-c3ccc(F)c(F)c3)c2)CC1` [Example 357]: 130%.
On the same count and under the same terms, next, `O=C(NC1CCOCC1)[C@H]1CC[C@@H](n2cnc(-c3cccc(F)c3F)c2)CC1` [Example 358]: 126%.
On the same count and under the same terms, next, `O=C(NC1CCC(F)(F)CC1)N1[C@@H]2CC[C@H]1C[C@@H](n1cnc(-c3ccc(F)cc3F)c1)C2` [Example 384]: 652%; `O=C(NC1CCCCC1)N1[C@@H]2CC[C@H]1C[C@@H](n1cnc(-c3ccc(F)cc3F)c1)C2` [Example 385]: 218%.
`O=C(NC1CCCCC1)N1[C@@H]2CC[C@H]1C[C@@H](n1cnc(-c3cccc(F)c3F)c1)C2` [Example 387]: the activity at 1 µM amounted to 315%.
Turning to `O=C(NC1CCC(F)(F)CC1)N1[C@@H]2CC[C@H]1C[C@@H](n1cnc(-c3cc(F)ccc3F)c1)C2` [Example 388], the activity at 1 µM was determined as 335%.
Still for that read-out and setting: next, `O=C(NC1CCCCC1)N1[C@@H]2CC[C@H]1C[C@@H](n1cnc(-c3cc(F)ccc3F)c1)C2` [Example 389]: 163%; `N#Cc1c(-c2cc(F)ccc2F)ncn1[C@H]1C[C@H]2CC[C@@H](C1)N2C(=O)NC1CCC(F)(F)CC1` [Example 403]: 590%.

Staying with this test, now noted: 10 μM test compound; ACh at EC20; ratio of RLU (Max-Min) to control wells; read-out: α7PAM (%) @10 μM.
`N#Cc1c(-c2ccc(F)cc2)ncn1[C@H]1CC[C@@H](NC(=O)C2CCOCC2)CC1` [Example 336]: the activity at 10 µM was 557%.
On the same count and under the same terms, for `CC(C)(F)C(=O)N[C@H]1CC[C@@H](n2cnc(-c3ccccc3F)c2C#N)CC1` [Example 337] the value was 492%; for `CC(C)(F)C(=O)N[C@H]1CC[C@@H](n2cnc(-c3cccc(F)c3)c2C#N)CC1` [Example 338], 192%; for `CC(C)(F)C(=O)N[C@H]1CC[C@@H](n2cnc(-c3cccc(F)c3F)c2C#N)CC1` [Example 339], 351%.
Still for that read-out and setting: next, `CC(C)(F)C(=O)N[C@H]1CC[C@@H](n2cnc(-c3ccc(F)cc3F)c2C#N)CC1` [Example 340]: 377%.
As for `CC(C)(F)C(=O)N[C@H]1CC[C@@H](n2cnc(-c3cc(F)ccc3F)c2C#N)CC1` [Example 341], the activity at 10 µM is 233%.
Still for that read-out and setting: for `CC(C)(F)C(=O)N[C@H]1CC[C@@H](n2cnc(-c3ccc(F)c(F)c3)c2C#N)CC1` [Example 342] the value was 369%; for `CC(C)(F)C(=O)N[C@H]1CC[C@@H](n2cnc(-c3ccccc3OC(F)(F)F)c2C#N)CC1` [Example 344], 220%.
As for `CC(C)(F)C(=O)N[C@H]1CC[C@@H](n2cnc(-c3cccc(OC(F)(F)F)c3)c2C#N)CC1` [Example 345], the activity at 10 µM amounted to 153%.
On the same count and under the same terms, next, `CC(C)(F)C(=O)N[C@H]1CC[C@@H](n2cnc(-c3ccc(OC(F)(F)F)cc3)c2C#N)CC1` [Example 346]: 169%.
The same measure, in the same setting: for `CC(C)(F)C(=O)N[C@H]1CC[C@@H](n2cnc(-c3ccc(OC(F)(F)F)cc3F)c2C#N)CC1` [Example 347] the value was 130%.
Still for that read-out and setting: for `CC(C)(F)C(=O)N[C@H]1CC[C@@H](n2cnc(-c3ccc(OC(F)(F)F)c(F)c3)c2C#N)CC1` [Example 348] the value was 131%; for `CC(C)(F)C(=O)N[C@H]1CC[C@@H](n2cnc(-c3cc(OC(F)(F)F)ccc3F)c2C#N)CC1` [Example 349], 290%; for `Cc1c(-c2ccc(F)cc2)ncn1[C@H]1CC[C@@H](NC(=O)C(C)(C)F)CC1` [Example 351], 540%.
`Cc1c(-c2ccc(F)cc2)ncn1[C@H]1CC[C@@H](NC(=O)C2CCOCC2)CC1` [Example 352]: the activity at 10 µM amounted to 164%.
Consider `Cc1c(-c2ccc(F)cc2)ncn1[C@H]1CC[C@@H](NC(=O)C2CCC(F)(F)CC2)CC1` [Example 353], for which the activity at 10 µM stood at 518%.
As to `Cc1c(-c2ccc(F)cc2)ncn1[C@H]1CC[C@@H](NC(=O)C(C)(C)C)CC1` [Example 354], the activity at 10 µM was 230%.
As for `O=C(NC1CCOCC1)[C@H]1CC[C@@H](n2cnc(-c3cccc(F)c3)c2Cl)CC1` [Example 359], the activity at 10 µM stood at 581%.
For `O=C(NC1CCOCC1)[C@H]1CC[C@@H](n2cnc(-c3ccccc3F)c2Cl)CC1` [Example 360], the activity at 10 µM came out at 598%.
For the molecule `O=C(NC1COC1)[C@H]1CC[C@@H](n2cnc(-c3ccc(C(F)(F)F)cc3)c2Cl)CC1` [Example 361], the activity at 10 µM was 794%.
On the same count and under the same terms, next, `O=C(NC1COC1)[C@H]1CC[C@@H](n2cnc(-c3ccc(F)cc3)c2Cl)CC1` [Example 364]: 537%; `O=C(NC1CCOC1)[C@H]1CC[C@@H](n2cnc(-c3ccc(F)cc3)c2Cl)CC1` (stereo partly shown) [Example 366]: 834%.
On the same count and under the same terms, for `O=C(NC1CCOCC1)[C@H]1CC[C@@H](n2cnc(-c3cc(F)ccc3F)c2Cl)CC1` [Example 368] the value was 941%; for `O=C(NC1CCOCC1)[C@H]1CC[C@@H](n2cnc(-c3cccc(F)c3F)c2Cl)CC1` [Example 371], 962%; for `N#Cc1c(-c2ccc(F)cc2)ncn1[C@H]1CC[C@@H](C(=O)NC2CCOCC2)CC1` [Example 373], 966%.
Still for that read-out and setting: next, `N#Cc1c(-c2cc(F)ccc2F)ncn1[C@H]1CC[C@@H](C(=O)NC2CCOCC2)CC1` [Example 375]: 457%; `N#Cc1c(-c2cc(F)cc(F)c2)ncn1[C@H]1CC[C@@H](C(=O)NC2CCOCC2)CC1` [Example 376]: 426%.
For `N#Cc1c(-c2ccc(C(F)(F)F)cc2)ncn1[C@H]1CC[C@@H](C(=O)NC2CCOCC2)CC1` [Example 377], the activity at 10 µM amounted to 988%.
Take `Cc1c(-c2ccc(F)cc2)ncn1[C@H]1CC[C@@H](C(=O)NC2CCOCC2)CC1` [Example 381]: the activity at 10 µM is 377%.
Consider `O=C(NC1CCCCC1)N1[C@@H]2CC[C@H]1C[C@@H](n1cnc(-c3ccc(F)cc3)c1)C2` [Example 382], for which the activity at 10 µM was found to be 222%.
Turning to `O=C(NC1CCCCC1)N1[C@@H]2CC[C@H]1C[C@@H](n1cnc(-c3ccccc3)c1)C2` [Example 383], the activity at 10 µM amounted to 598%.
Regarding `O=C(NC1CCC(F)(F)CC1)N1[C@@H]2CC[C@H]1C[C@@H](n1cnc(-c3cccc(F)c3F)c1)C2` [Example 386], the activity at 10 µM was found to be 880%.
On to `O=C(NC1CCCCC1)N1[C@@H]2CC[C@H]1C[C@@H](n1cnc(-c3ccc(F)cc3)c1Cl)C2` [Example 390], for which the activity at 10 µM came out at 683%.
Consider `O=C(NC1CCC(F)(F)CC1)N1[C@@H]2CC[C@H]1C[C@@H](n1cnc(-c3ccc(F)cc3F)c1Cl)C2` [Example 394], for which the activity at 10 µM came out at 455%.
In the case of `O=C(NC1CCOCC1)N1[C@@H]2CC[C@H]1C[C@@H](n1cnc(-c3ccc(F)cc3F)c1Cl)C2` [Example 395], the activity at 10 µM worked out at 869%.
Still for that read-out and setting: next, `O=C(NC1CCC(F)(F)CC1)N1[C@@H]2CC[C@H]1C[C@@H](n1cnc(-c3cc(F)ccc3F)c1Cl)C2` [Example 396]: 585%; `O=C(NC1CCOCC1)N1[C@@H]2CC[C@H]1C[C@@H](n1cnc(-c3cc(F)ccc3F)c1Cl)C2` [Example 397]: 522%.
Same read-out and setting: next, `O=C(NC1CCC(F)(F)CC1)N1[C@@H]2CC[C@H]1C[C@@H](n1cnc(-c3cccc(F)c3F)c1Cl)C2` [Example 398]: 607%; `O=C(NC1CCOCC1)N1[C@@H]2CC[C@H]1C[C@@H](n1cnc(-c3cccc(F)c3F)c1Cl)C2` [Example 399]: 891%; `N#Cc1c(-c2ccc(F)cc2F)ncn1[C@H]1C[C@H]2CC[C@@H](C1)N2C(=O)NC1CCC(F)(F)CC1` [Example 402]: 498%.
For `N#Cc1c(-c2cccc(F)c2F)ncn1[C@H]1C[C@H]2CC[C@@H](C1)N2C(=O)NC1CCC(F)(F)CC1` [Example 404], the activity at 10 µM is 292%.
Still for that read-out and setting: next, `O=C(NC1CCCCC1)N1[C@@H]2CC[C@H]1C[C@H](n1cnc(-c3ccc(F)cc3)c1)C2` [Example 405]: 402%; `O=C(NC1CCCCC1)N1[C@@H]2CC[C@H]1C[C@H](n1cnc(-c3ccccc3)c1)C2` [Example 406]: 629%; `O=C(NC1CCC(F)(F)CC1)N1[C@@H]2CC[C@H]1C[C@H](n1cnc(-c3ccc(F)cc3F)c1)C2` [Example 407]: 904%.
Consider `O=C(NC1CCCCC1)N1[C@@H]2CC[C@H]1C[C@H](n1cnc(-c3ccc(F)cc3F)c1)C2` [Example 408], for which the activity at 10 µM was 140%.
The same measure, in the same setting: for `O=C(NC1CCC(F)(F)CC1)N1[C@@H]2CC[C@H]1C[C@H](n1cnc(-c3cccc(F)c3F)c1)C2` [Example 409] the value was 576%.

The test is the same for the next values; noted with them: comparison across Tables 18 to 25.
For `O=C(NC1CCOCC1)[C@H]1CC[C@@H](n2cnc(-c3cccc(Cl)c3)c2Cl)CC1` [Example 362], the “PAM activity for α7 nAChR (in words)” value is reported as “stronger PAM activity than others”.
`O=C(NC1CCOCC1)[C@H]1CC[C@@H](n2cnc(-c3ccc(Cl)cc3)c2Cl)CC1` [Example 363]: the “PAM activity for α7 nAChR (in words)” value is “stronger PAM activity than others”.
On the same count and under the same terms, next, `N#Cc1c(-c2ccc(OC(F)(F)F)cc2)ncn1[C@H]1CC[C@@H](C(=O)NC2CCOCC2)CC1` [Example 380]: “stronger PAM activity than others”.

These data come from patent US20150259344A1, “IMIDAZOLE DERIVATIVE” (DAINIPPON SUMITOMO PHARMA CO., LTD., priority 2012, published 2015).
